According to US4921504A, “4-(N-ethyl-N-2-hydroxyethyl)-amino-1-(2 hydroxyethyl)-amino-2-nitrobenzene and compositions for dyeing hair containing the same” (Wella Aktiengesellschaft, priority 1984, dated 1990):
Converted amounts (≈) assume the structure as drawn. Like-named read-outs stand apart in the source and are kept apart here.

Columns and labels:
[1] = general toxicological safety; conditions: compared with compounds II through VI
human-lymphocyte = experiment: human-lymphocyte-test; assay type: cell-based
[2] = storage stability of dyes; assay type: physicochemical; conditions: in dye compositions
solubility in water = assay type: physicochemical
Description: In view of the foregoing, it was most surprising to find the blue nitro dye (compound I), being an isomer of compound III and a homologue of compound VI, has sufficiently different characteristics which cannot be derived from known compounds III, IV, V or VI. The dye (I) in accordance with the present invention has a solubility of about 1.0% in water which facilitates the acquisition of dark shades considerably, particularly, in comparison with compound III. […] Rather, an oil is formed from which the dye can later be supplied during the dyeing process. The alternative of redissolving formed crystals would take too much time and, as a result, such crystals would not, again, be available during the dyeing process.

mouse-lymphoma = experiment: mouse-lymphoma-assay; assay type: cell-based
yeast cell = experiment: yeast cell-mutagenity test; assay type: cell-based
Description: 2. yeast cell-mutagenity test

Ames test = assay type: cell-based
LD50 (toxicity) = conditions: in vivo
light genuiness = assay type: physicochemical; conditions: nitro dyes containing compound I
[3] = prior-art compound, cited from earlier work
[4] = prior-art compound; cited from earlier work
[5] = prior-art compound; doubts recently raised regarding safe use; cited from earlier work
[6] = in water without also having to dissolve intermediaries (III)

Structure (SMILES): CCN(CCO)c1ccc(NCCO)c([N+](=O)[O-])c1 [Compound I, 4-(N-ethyl-N-2'-hydroxyethyl)-amino-1-(2"-hydroxyethyl)-amino-2-nitrobenzene]
- toxicological safety [1]: safe
- mutagenicity in human-lymphocyte-test (human-lymphocyte): not mutagenic
- storage stability [2]: extraordinary
- skin compatibility (skin compatibility): good skin compatibility
- behaviour when exceeding solubility (solubility in water; exceeding solubility, an oil is formed): does not crystallize
- solubility (solubility in water; in water): ~10000 µg/mL (≈ 37.1 mM)
- mutagenicity in mouse-lymphoma-assay (mouse-lymphoma): not mutagenic
- mutagenicity in yeast cell-mutagenity test (yeast cell): not mutagenic
- mutagenicity in Ames test (Ames test): not mutagenic
- LD50 (LD50 (toxicity)): ~2000 mg/kg
- light genuiness (light genuiness): very good

Structure (SMILES): CCNc1ccc(N(CCO)CCO)cc1[N+](=O)[O-] [III]
- solubility in water [3, 6]: below 0.15%

Structure (SMILES): O=[N+]([O-])c1cc(N(CCO)CCO)ccc1NCCO [IV]
- solubility in water [3]: high solubility

Structure (SMILES): CN(CCO)c1ccc(NCCO)c([N+](=O)[O-])c1 [VI]
- mutagenic effect in Ames test [4]: mutagenic effect

Structure (SMILES): CNc1ccc(N(CCO)CCO)cc1[N+](=O)[O-] [V]
- level of toxicity [5]: possibly unacceptable
- solubility in water [3, 6]: about 0.5%
